The record followed here is article PMC3542062, “A phenyl-thiadiazolylidene-amine derivative ejects zinc from retroviral nucleocapsid zinc fingers and inactivates HIV virions” (Retrovirology, 2012).

The subject of assay [1] is HIV-1 IIIB. The experiment in a line: GFP-assay in Jurkat A72 (LTR-GFP) cells. In kind it is cell-based. The conditions noted are these: Human immunodeficiency virus 1, IIIB, 72 h, 3 days after infection.
The test system of assay [2] is HIV-1 virus particles. The experiment in a line: Virion-associated p24 of pre-treated, compound-cleared virus (ELISA). Particulars: compound-cleared HIV-1 virus stock.
Assay [3] deals with NC(11-55). The experiment in a line: Zinc ejection monitored by supramolecular mass spectrometry. In kind it is biochemical, HIV-1. Particulars: non-denaturing MS, Vc = 20 V, Pi = 6 mbar. Here is the method:
Purity and homogeneity of NC(11-55) were verified by mass analysis in denaturing conditions. In these acidic conditions, zinc is released from the peptide; and a molecular weight of 5137. 7 ± 0.4 Da was measured, in agreement with the expected mass of the zinc-free NC form (5137.9 Da). […] This is in contrast to the earlier discovered DIBA zinc ejectors for which the Zn ejection is accompanied by the formation of covalent complexes formed between the compound and Cys residues of Zn-depleted NCp7 [25].
Figure 5 Zinc ejection as monitored by mass spectrometry. […] Under non-denaturing conditions (Vc = 20 V, Psi = 6 mbar), the mass measured for NCp7(11-55) alone is 5264.0 Da corresponding to the NC peptide complexed with two zinc ions.
Before mass spectrometry (MS) analysis, NC(11-55) was dissolved and buffer exchanged with 50 mM ammonium acetate pH 7.0 using 4 cycles of microcentrifuge size exclusion filtering (Vivaspin 500 5kD, Sartorius Stedim biotech, Aubagne, France) and peptide concentration was measured by a Bradford assay. […]
Analyses under non-denaturing conditions were carried out after careful optimization of instrumental settings to avoid dissociation of noncovalent bonds and obtain sensible detection of protein/zinc complexation states. […] Peak intensities were used to estimate the ratios of the different ions detected.

Assay [4] has as its system NC(11-55). The experiment in a line: Inhibition of NC(11-55)-induced destabilization of cTAR (Rh6G-cTAR-Dabcyl fluorescence). In kind it is biochemical, HIV-1.
Protocol: The NCp7-induced destabilization of cTAR can be sensitively monitored by using the doubly labeled Rh6G-5^′-cTAR-3^′-Dabcyl derivative.
(A) Emission spectra of Rh6G-cTAR-Dabcyl (0.1 μM) recorded in the absence (circle) or in the presence of NCp7(11-55) (1 μM) (square). […] Excitation wavelength was 520 nm. […] Excitation wavelength was 520 nm.
An extinction coefficient at 260 nm of 521,910 M^–1 x cm^–1 was used for cTAR. All experiments were performed at 20°C in 25 mM Tris–HCl, pH 7.5, 30 mM NaCl, and 0.2 mM MgCl2[28].
In assay [5] the test system is BZ163 subtype F. The experiment in a line: Virucidal assay on clinical isolates, titration on PBMCs. Particulars: 125 μM, 1 h 37°C, untreated control 16242. In kind it is cell-based, HIV-1.
For assay [6], the system named is NCp7(11-55). The experiment in a line: Zinc ejection monitored by Trp37 intrinsic fluorescence. In kind it is biochemical, HIV-1. Here is the method:
Ejection of 50% of the zinc is observed in less than 5 minutes (Figure 4C).
As a reference, NCp7(11-55) was treated with 1 mM EDTA, a well known zinc chelator (triangle). […] (B) Time-dependent zinc ejection from NCp7(11-55). […] The data points (stars) corresponded to the fluorescence intensity at the maximum emission wavelength from panel B. Solid line represents a double-exponential fit to the data. (D) Zinc ejection from NCp7(11-55) in the presence of an excess of zinc. Emission spectra of the NCp7(11-55) (1 μM) in the presence of an excess of 100 μM zinc (triangle). […] The emission spectrum of NCp7(11-55) incubated with 1 mM EDTA (triangle) for one hour is given as a reference.
The NC(11-55) peptide was synthesized by solid phase peptide synthesis on a 433A synthesizer (ABI, Foster City, CA), as previously described. The lyophilized peptide was dissolved in water, and its concentration was determined using an extinction coefficient of 5,700 M^–1 x cm^–1 at 280 nm. Next, 2.5 molar equivalents of ZnSO4 were added to the peptide and pH was raised to its final value, by adding buffer. The increase of pH was done only after zinc addition to avoid oxidization of the zinc-free peptide.
Absorption spectra were recorded on a Cary 400 spectrophotometer. Fluorescence spectra were recorded at 20°C on a Fluorolog spectrofluorometer (Horiba, Jobin-Yvon), equipped with a thermostated cell compartment. Excitation wavelength was 295 nm and 520 nm, for NC(11-55) and Rh6G-5^′-cTAR-3^′-Dabcyl, respectively. The spectra were corrected for dilution and buffer fluorescence. The protein spectra were additionally corrected for screening effects due to the zinc ejecting agent, using: […]

Assay [7] deals with HIV-1 IIIB. The experiment in a line: Anti-HIV activity in CEM cells (cytopathogenicity). In kind it is cell-based. Particulars: Human immunodeficiency virus 1, IIIB, CCRF-CEM.
In assay [8] the test system is NL4.3/AMD3100R. The experiment in a line: microbe, parasite or virus in culture. In kind it is cell-based, HIV-1. The conditions noted are these: Human immunodeficiency virus 1, Jurkat, 72 h, read-out: EC50 NL4.3/AMD3100R.
[9] abbreviates: 10 μM compound, 1 μM NC(11-55), 0.1 μM cTAR.
[10] abbreviates: 10 μM compound, 1 μM NCp7(11-55).

Regarding `Cn1sc(=N)nc1-c1ccccc1` [WDO-217, 2-methyl-3-phenyl-2H-[1,2,4]thiadiazol-5-ylideneamine], the EC50 was 1040 ± 200 nM in assay [1], 8300 ± 1800 nM in assay [7] and 1700 ± 900 nM in assay [8]. For the same compound, in assay [2], the “virus-associated p24 core protein after treatment” value is reported as “did not affect”. The “covalent complex between NC(11-55) and compound” value in assay [3] was “no covalent complex”. Further, in assay [4] (setting [9]), the “time to 50% inhibition of NC(11-55)-induced cTAR destabilization” value is listed as “less than 5 minutes”. The “time to complete inhibition of NC(11-55)-induced cTAR destabilization” value in assay [4] (setting [9]) amounted to 50 min. The “NC(11-55) ability to destabilize cTAR after preincubation” value in assay [4] (molar ratio 10:1 compound to NC(11-55)) is recorded as “full loss”. Further, the “CCID50/ml BZ163 subtype F” value in assay [5] is 2558 CCID50/ml. Also, the “time to complete zinc ejection” value in assay [6] (setting [10]) is 35 min. In addition, in assay [6] (setting [10]), the “time to ejection of 50% of the zinc” value was “less than 5 minutes”. Besides, in assay [6] (10-fold excess (10 μM), 1 h pre-incubation), the “zinc ejection (decrease of Trp37 fluorescence, same as 1 mM EDTA)” value is listed as “efficiently ejects zinc”.
